Read-outs that look alike come from different tables or passages of the source.
Assays:
human CB2 receptor = human CB2 receptor (Homo sapiens (Human), UniProt P34972); experiment: CB2 receptor binding assay ([3H]CP-55,940 displacement, HEK-293 membranes)
Description: The compounds were evaluated in CB1R and CB2R binding assays using membranes from HEK-293 cells transfected with cDNAs encoding the human recombinant CB1R (Bmax=[…] protein) and human recombinant CB2R (Bmax=[…] protein) (Perkin-Elmer). […] Compounds were tested following the procedure described by the cell membrane manufacturer. […] CB2R binding assays were carried out with two different buffers: incubation buffer (Tris-HCl, 50 mM; MgCl2, 5 mM; CaCl2 1 mM; BSA, 0.2% at pH 7.4) and washing buffer (Tris-HCl, 50 mM; NaCl 500 mM; BSA, 0.1% at pH 7.4). […] Assays were performed in duplicate and incubated for […] at 37° C. […] Data are analyzed and IC50 is calculated using GraphPad Prism 5 and the model “log(inhibitor) vs. response—Variable slope”. The binding affinity of the compounds is Determined by Using the Cheng and Prusoff Equation Ki=IC50/(1+[radioligand]/Kd).

human recombinant CB1R = human recombinant CB1R (Homo sapiens (Human), UniProt P21554); experiment: CB1 receptor binding assay ([3H]CP-55,940 displacement, HEK-293 membranes)
Chain of human recombinant CB1R (P21554 whole entry): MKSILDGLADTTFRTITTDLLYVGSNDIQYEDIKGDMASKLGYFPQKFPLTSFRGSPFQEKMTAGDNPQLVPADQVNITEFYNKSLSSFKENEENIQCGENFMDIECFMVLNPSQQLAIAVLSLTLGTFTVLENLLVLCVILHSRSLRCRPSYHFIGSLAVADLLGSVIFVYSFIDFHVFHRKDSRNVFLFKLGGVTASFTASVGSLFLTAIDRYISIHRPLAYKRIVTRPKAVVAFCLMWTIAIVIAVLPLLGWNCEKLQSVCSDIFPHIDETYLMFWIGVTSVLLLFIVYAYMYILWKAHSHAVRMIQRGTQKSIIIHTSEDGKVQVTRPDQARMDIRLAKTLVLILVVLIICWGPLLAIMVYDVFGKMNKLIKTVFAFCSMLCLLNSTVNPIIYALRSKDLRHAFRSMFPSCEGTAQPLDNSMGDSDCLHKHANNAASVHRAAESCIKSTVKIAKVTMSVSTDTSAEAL
Description: The compounds were evaluated in CB1R and CB2R binding assays using membranes from HEK-293 cells transfected with cDNAs encoding the human recombinant CB1R (Bmax=[…] protein) and human recombinant CB2R (Bmax=[…] protein) (Perkin-Elmer). […]. Compounds were tested following the procedure described by the cell membrane manufacturer. […] CB2R binding assays were carried out with two different buffers: incubation buffer (Tris-HCl, 50 mM; MgCl2, 5 mM; CaCl2 1 mM; BSA, 0.2% at pH 7.4) and washing buffer (Tris-HCl, 50 mM; NaCl 500 mM; BSA, 0.1% at pH 7.4). […] Assays were performed in duplicate and incubated for […] at 37° C. After the incubation, the assay mixture is filtered through 96 GF/C filter plates (Perkin Elmer #6005174) using Perkin Elmer Filtermate Harvester, and then washed four times with ice-cold washing buffer. The filters are dried for 1 hour at 50° C. and [^3H] trapped on filter counted for radioactivity in Perkin Elmer Microscint 20 cocktail (#6013329) using Perkin Elmer MicroBeta2 Reader. […] Data are analyzed and IC50 is calculated using GraphPad Prism 5 and the model “log(inhibitor) vs. response—Variable slope”. The binding affinity of the compounds is Determined by Using the Cheng and Prusoff Equation Ki=IC50/(1+[radioligand]/Kd).

[1] = membranes of HEK-293 cells with human recombinant CB1R, [3H]CP-55,940, class symbols, read-out: CB1 IC50
[2] = membranes of HEK-293 cells with human recombinant CB2R, [3H]CP-55,940, class symbols, read-out: CB2 IC50
[3] = membranes of HEK-293 cells with human recombinant CB2R, [3H]CP-55,940, read-out: CB2 IC50
[4] = membranes of HEK-293 cells with human recombinant CB1R, [3H]CP-55,940, read-out: CB1 IC50

Chain of human CB2 receptor (P34972 whole entry): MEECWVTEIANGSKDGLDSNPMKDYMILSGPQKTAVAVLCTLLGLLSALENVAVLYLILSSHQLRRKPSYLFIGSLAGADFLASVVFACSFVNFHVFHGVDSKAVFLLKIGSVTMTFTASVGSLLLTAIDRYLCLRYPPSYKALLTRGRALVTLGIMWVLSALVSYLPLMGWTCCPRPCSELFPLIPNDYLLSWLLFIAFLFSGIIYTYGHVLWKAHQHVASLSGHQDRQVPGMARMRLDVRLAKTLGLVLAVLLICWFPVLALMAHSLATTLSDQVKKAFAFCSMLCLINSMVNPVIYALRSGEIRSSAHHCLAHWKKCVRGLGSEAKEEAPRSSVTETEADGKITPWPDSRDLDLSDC

Row | Compound | IC50 (human CB2 receptor) [nM] | IC50 (human recombinant CB1R; [1]) [nM] | IC50 (human CB2 receptor; [2]) [nM] | other results
1 | CC(NC(=O)c1c(O)c2cc(Br)cnc2n(Cc2ccc(F)cc2)c1=O)c1ccc(F)cc1 (stereo not shown) [Compound 1, 6-bromo-1-(4-fluorobenzyl)-N-(1-(4-fluorophenyl)ethyl)-4-hydroxy-2-oxo-1,2-dihydro-1,8-naphthyridine-3-carboxamide] | 100 to 999 | > 1000 |  | 
2 | O=C(NC1CC2(CCC2)C1)c1c(O)c2cc(Br)cnc2n(Cc2ccc(F)cc2)c1=O [Compound 2, 6-bromo-1-(4-fluorobenzyl)-4-hydroxy-2-oxo-N-(spiro[3.3]heptan-2-yl)-1,2-dihydro-1,8-naphthyridine-3-carboxamide] | 100 to 999 | > 1000 |  | 
3 | CC(NC(=O)c1c(O)c2cc(Br)cnc2n(Cc2ccc(F)cc2)c1=O)c1ccc(C#N)cc1 (stereo not shown) [Compound 3, 6-bromo-N-(1-(4-cyanophenyl)ethyl)-1-(4-fluorobenzyl)-4-hydroxy-2-oxo-1,2-dihydro-1,8-naphthyridine-3-carboxamide] | 100 to 999 | > 1000 |  | 
4 | O=C(NC1CC2(CCC2)C1)c1c(O)c2cc(Br)cnc2n(CCN2CCOCC2)c1=O [Compound 4, 6-bromo-4-hydroxy-1-(2-morpholinoethyl)-2-oxo-N-(spiro[3.3]heptan-2-yl)-1,2-dihydro-1,8-naphthyridine-3-carboxamide] | 100 to 999 |  |  | 
5 | O=C(NC12CC(C1)C2)c1c(O)c2cc(-c3ccc(OC(F)F)cc3)cnc2n(CCN2CCOCC2)c1=O [Compound 12, N-(bicyclo[1.1.1]pentan-1-yl)-6-(4-(difluoromethoxy)phenyl)-4-hydroxy-1-(2-morpholinoethyl)-2-oxo-1,2-dihydro-1,8-naphthyridine-3-carboxamide] |  | > 1000 | > 1000 | 
6 | O=C(NC1CC2(CCC2)C1)c1c(O)c2cc(-c3ccccc3)cnc2n(CCN2CCOCC2)c1=O [Compound 14, 4-hydroxy-1-(2-morpholinoethyl)-2-oxo-6-phenyl-N-(spiro[3.3]heptan-2-yl)-1,2-dihydro-1,8-naphthyridine-3-carboxamide] |  |  | < 100 | 
7 | CC1CCC(NC(=O)c2c(O)c3cc(-c4ccc(C5CC5)cc4)cnc3n(CCN3CCOCC3)c2=O)CC1 (stereo not shown) [Compound 17, 6-(4-cyclopropylphenyl)-4-hydroxy-N-(4-methylcyclohexyl)-1-(2-morpholinoethyl)-2-oxo-1,2-dihydro-1,8-naphthyridine-3-carboxamide] | 100 to 999 | > 1000 |  | 
8 | CC1CCC(NC(=O)c2c(O)c3cc(-c4ccc(OC(C)C)cc4)cnc3n(CCN3CCOCC3)c2=O)CC1 (stereo not shown) [Compound 18, 4-hydroxy-6-(4-isopropoxyphenyl)-N-(4-methylcyclohexyl)-1-(2-morpholinoethyl)-2-oxo-1,2-dihydro-1,8-naphthyridine-3-carboxamide] |  | > 1000 | > 1000 | 
9 | CC(NC(=O)c1c(O)c2cc(-c3ccc(C#N)cn3)cnc2n(CCN2CCOCC2)c1=O)c1ccc(F)cc1 (stereo not shown) [Compound 21, 6-(5-cyanopyridin-2-yl)-N-(1-(4-fluorophenyl)ethyl)-4-hydroxy-1-(2-morpholinoethyl)-2-oxo-1,2-dihydro-1,8-naphthyridine-3-carboxamide] | 100 to 999 | > 1000 |  | 
10 | N#Cc1ccc(-c2cnc3c(c2)c(O)c(C(=O)NC2CC4(CCC4)C2)c(=O)n3CCN2CCOCC2)nc1 [Compound 22, 6-(5-cyanopyridin-2-yl)-4-hydroxy-1-(2-morpholinoethyl)-2-oxo-N-(spiro[3.3]heptan-2-yl)-1,2-dihydro-1,8-naphthyridine-3-carboxamide] | 100 to 999 | > 1000 |  | 
11 | O=C(NC1CC2(CCC2)C1)c1c(O)c2cc(-c3ccc(F)cc3)ccc2n(CCN2CCOCC2)c1=O [Compound 23, 6-(4-fluorophenyl)-4-hydroxy-1-(2-morpholinoethyl)-2-oxo-N-(spiro[3.3]heptan-2-yl)-1,2-dihydroquinoline-3-carboxamide] |  |  | < 100 | IC50 (human recombinant CB1R): 100 to 999 nM
12 | CC(NC(=O)c1c(O)c2cc(-c3ccc(C#N)cn3)cnc2n(Cc2ccc(F)cc2)c1=O)c1ccc(C#N)cc1 (stereo not shown) [Compound 24, N-(1-(4-cyanophenyl)ethyl)-6-(5-cyanopyridin-2-yl)-1-(4-fluorobenzyl)-4-hydroxy-2-oxo-1,2-dihydro-1,8-naphthyridine-3-carboxamide] |  | > 1000 | > 1000 | 
13 | O=C(NC1CC2(CCC2)C1)c1c(O)c2cc(-c3ccc(OC(F)F)cn3)cnc2n(CCN2CCOCC2)c1=O [Compound 25, 6-(5-(difluoromethoxy)pyridin-2-yl)-4-hydroxy-1-(2-morpholinoethyl)-2-oxo-N-(spiro[3.3]heptan-2-yl)-1,2-dihydro-1,8-naphthyridine-3-carboxamide] |  | > 1000 | > 1000 | 
14 | COc1ccc(-c2cnc3c(c2)cc(C(=O)NC2CCC(C)(C)CC2)c(=O)n3CCN2CCOCC2)cc1 [Compound 26, N-(4,4-dimethylcyclohexyl)-6-(4-methoxyphenyl)-1-(2-morpholinoethyl)-2-oxo-1,2-dihydro-1,8-naphthyridine-3-carboxamide] |  |  |  | IC50 (human CB2 receptor; [3]): 2.2 nM; IC50 (human recombinant CB1R; [4]): > 10000 nM
15 | COc1ccc(-c2cnc3c(c2)cc(C(=O)NC2CCC(F)(F)CC2)c(=O)n3CCN2CCOCC2)cc1 [Compound 27, N-(4,4-difluorocyclohexyl)-6-(4-methoxyphenyl)-1-(2-morpholinoethyl)-2-oxo-1,2-dihydro-1,8-naphthyridine-3-carboxamide] |  |  |  | IC50 (human CB2 receptor; [3]): 2 nM; IC50 (human recombinant CB1R; [4]): > 10000 nM
16 | COc1ccc(-c2cnc3c(c2)cc(C(=O)NC2CCC4(CC2)CC4)c(=O)n3CCN2CCOCC2)cc1 [Compound 28, 6-(4-methoxyphenyl)-1-(2-morpholinoethyl)-2-oxo-N-(spiro[2.5]octan-6-yl)-1,2-dihydro-1,8-naphthyridine-3-carboxamide] |  |  |  | IC50 (human CB2 receptor; [3]): 0.7 nM; IC50 (human recombinant CB1R; [4]): > 10000 nM
17 | O=C(NC1CC2(CCC2)C1)c1cc2cc(-c3ccc(OC(F)F)cn3)cnc2n(Cc2ccc(F)cc2)c1=O [Compound 43, 6-(5-(difluoromethoxy)pyridin-2-yl)-1-(4-fluorobenzyl)-2-oxo-N-(spiro[3.3]heptan-2-yl)-1,2-dihydro-1,8-naphthyridine-3-carboxamide] | 100 to 999 |  |  | 
18 | C[C@H](NC(=O)c1cc2cc(-c3ccc(OC(F)F)cn3)cnc2n(CCN2CCOCC2)c1=O)c1ccc(F)cc1 [Compound 49, (S)-6-(5-(difluoromethoxy)pyridin-2-yl)-N-(1-(4-fluorophenyl)ethyl)-1-(2-morpholinoethyl)-2-oxo-1,2-dihydro-1,8-naphthyridine-3-carboxamide] |  |  | 100 to 999 | 
19 | O=C(NC12CC(C1)C2)c1c(O)c2cc(-c3ccc(F)cc3)cnc2n(CCN2CC3CC(C2)O3)c1=O [Compound 165, 1-(2-(6-oxa-3-azabicyclo[3.1.1]heptan-3-yl)ethyl)-N-(bicyclo[1.1.1]pentan-1-yl)-6-(4-fluorophenyl)-4-hydroxy-2-oxo-1,2-dihydro-1,8-naphthyridine-3-carboxamide] |  |  | > 1000 | 
20 | O=C(NC12CC(C1)C2)c1c(O)c2cc(-c3ccc(F)cc3)cnc2n(CCN2C3COCC2C3)c1=O [Compound 166, 1-(2-(3-oxa-6-azabicyclo[3.1.1]heptan-6-yl)ethyl)-N-(bicyclo[1.1.1]pentan-1-yl)-6-(4-fluorophenyl)-4-hydroxy-2-oxo-1,2-dihydro-1,8-naphthyridine-3-carboxamide] |  |  | > 1000 | 
21 | COc1c(C(=O)NC23CC(C2)C3)c(=O)n(CCN2CCOCC2)c2ncc(-c3ccc(F)cc3)cc12 [Compound 173, N-(bicyclo[1.1.1]pentan-1-yl)-6-(4-fluorophenyl)-4-methoxy-1-(2-morpholinoethyl)-2-oxo-1,2-dihydro-1,8-naphthyridine-3-carboxamide] |  |  | > 1000 | 
22 | COc1ccc(-c2cnc3c(c2)c(OC)c(C(=O)NC24CC(C2)C4)c(=O)n3CCN2CCOCC2)cc1 [Compound 177, N-(bicyclo[1.1.1]pentan-1-yl)-4-methoxy-6-(4-methoxyphenyl)-1-(2-morpholinoethyl)-2-oxo-1,2-dihydro-1,8-naphthyridine-3-carboxamide] |  |  | > 1000 | 
23 | COc1ccc(-c2cnc3c(c2)c(OC(C)C)c(C(=O)NC24CC(C2)C4)c(=O)n3CCN2CCOCC2)cc1 [Compound 180, N-(bicyclo[1.1.1]pentan-1-yl)-4-isopropoxy-6-(4-methoxyphenyl)-1-(2-morpholinoethyl)-2-oxo-1,2-dihydro-1,8-naphthyridine-3-carboxamide] |  |  | > 1000 | 

Reference: patent US11564928B1, “Cannabinoid receptor type 2 (CB2) modulators and uses thereof” (Teon Therapeutics, Inc., priority 2020, dated 2023)
